ChEMBL document CHEMBL5338804 (J Med Chem, 2023)
pIC50: −log10 of the molar value.

Tested on: not listed separately
Test: Protein binding in human plasma assessed as unbound fraction at 10 uM incubated for 5 hrs by equilibrium dialysis method
Assay type: ADME, cell-free
Conditions: not given
For `O=C(Nc1cnccc1-c1ccc(F)cc1)c1ccnc(Nc2ccc(Cl)cc2)n1`, the fraction unbound at 5 h, 10 µM was 0.002. With `O=C(Nc1cnccc1-c1ccc(F)cc1)c1ccnc(Nc2ccc(OC(F)F)cc2)n1` the fraction unbound at 5 h, 10 µM was 0.003.

Tested on: not listed separately
Test: Metabolic stability in rat liver microsomes assessed as parent compound remaining at 0.5 uM measured after 10 mins in presence of NADPH by LC-MS/MS analysis
Assay type: ADME, Microsome
Conditions: read-out: Stability
For `Cc1ccc(Nc2nccc(C(=O)Nc3cnccc3-c3ccccc3)n2)cc1`, the remaining at 10 min, 0.5 µM was 1%. For `COc1ccc(Nc2nccc(C(=O)Nc3cnccc3-c3ccccc3)n2)cc1`, the remaining at 10 min, 0.5 µM was 3%. `O=C(Nc1cnccc1OCC(F)(F)F)c1ccnc(Nc2ccccc2)n1` gave a remaining at 10 min, 0.5 µM of 2%. Compound `O=C(Nc1cnccc1-c1ccccc1)c1ccnc(Nc2cccnc2)n1` has a remaining at 10 min, 0.5 µM of 28%. `O=C(Nc1cnccc1-c1ccccc1)c1ccnc(Nc2ccc(Cl)cc2)n1` showed a remaining at 10 min, 0.5 µM of 70%. For `O=C(Nc1cnccc1-c1ccc(F)cc1)c1ccnc(Nc2ccccc2)n1`, the remaining at 10 min, 0.5 µM was 1%. For `O=C(Nc1cnccc1-c1ccc(F)cc1)c1ccnc(Nc2ccc(Cl)cc2)n1`, the remaining at 10 min, 0.5 µM was 43%. `O=C(Nc1cnccc1-c1ccc(F)cc1)c1ccnc(Nc2ccc(OC(F)F)cc2)n1` showed a remaining at 10 min, 0.5 µM of 62%.

Tested on: not listed separately
Test: Clearance in C57BL/6 mouse at 2 mg/kg, iv by LC-MS/MS analysis
Assay type: ADME, organism-based
Conditions: in vivo
With `O=C(Nc1cnccc1-c1ccc(F)cc1)c1ccnc(Nc2ccc(Cl)cc2)n1` the clearance was 15.8 mL/min/kg.

Tested on: not listed separately
Test: Oral bioavailability in C57BL/6 mouse at 10 mg/kg by LC-MS/MS analysis
Assay type: ADME, organism-based
Conditions: in vivo
`O=C(Nc1cnccc1-c1ccc(F)cc1)c1ccnc(Nc2ccc(Cl)cc2)n1` showed a bioavailability of 23%.

Tested on: not listed separately
Test: MRT in C57BL/6 mouse at 2 mg/kg, iv by LC-MS/MS analysis
Assay type: ADME, organism-based
Conditions: in vivo
Work on `O=C(Nc1cnccc1-c1ccc(F)cc1)c1ccnc(Nc2ccc(Cl)cc2)n1` yielded an MRT of 3.4 h.

Tested on: not listed separately
Test: Permeability of the compound from apical to basolateral side in human Caco-2 cells at 3 uM incubated for 2 hrs by LC-MS/MS analysis
Assay type: ADME, cell-based
Conditions: read-out: permeability
In the case of `O=C(Nc1cnccc1-c1ccccc1)c1ccnc(Nc2ccc(Cl)cc2)n1`, the Papp A→B at 2 h, 3 µM was 8.3 ×10⁻⁶ cm/s. `O=C(Nc1cnccc1-c1ccc(F)cc1)c1ccnc(Nc2ccc(Cl)cc2)n1` gave a Papp A→B at 2 h, 3 µM of 6.4 ×10⁻⁶ cm/s. Work on `O=C(Nc1cnccc1-c1ccc(F)cc1)c1ccnc(Nc2ccc(OC(F)F)cc2)n1` yielded a Papp A→B at 2 h, 3 µM of 8.2 ×10⁻⁶ cm/s.

Target: Glycogen synthase kinase-3 alpha (Homo sapiens, UniProt P49840)
Sequence (P49840 whole entry): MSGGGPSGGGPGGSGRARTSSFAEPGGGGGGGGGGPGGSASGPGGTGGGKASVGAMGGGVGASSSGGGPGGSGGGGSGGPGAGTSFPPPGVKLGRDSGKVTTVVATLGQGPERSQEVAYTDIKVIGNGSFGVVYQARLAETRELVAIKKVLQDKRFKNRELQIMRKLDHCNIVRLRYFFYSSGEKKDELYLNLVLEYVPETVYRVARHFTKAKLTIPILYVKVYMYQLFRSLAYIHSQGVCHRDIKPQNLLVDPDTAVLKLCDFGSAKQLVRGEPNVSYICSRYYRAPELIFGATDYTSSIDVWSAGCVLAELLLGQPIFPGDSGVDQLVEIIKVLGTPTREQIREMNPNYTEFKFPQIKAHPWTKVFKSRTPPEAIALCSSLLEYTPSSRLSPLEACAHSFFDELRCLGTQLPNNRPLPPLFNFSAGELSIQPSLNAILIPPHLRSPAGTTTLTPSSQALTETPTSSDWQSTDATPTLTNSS
Test: Displacement of FL-KRREILSRRP[ps]ERYR-NH2 from human recombinant full length GST-tagged GSK-3-alpha expressed in insect cells incubated for 20 hrs by fluorescence based analysis
Parameters: species or system Insect cell
Conditions: not given
Work on `O=C(Nc1cnccc1-c1ccccc1)c1ccnc(Nc2ccc(Cl)cc2)n1` yielded a pIC50 of 9.52. In the case of `O=C(Nc1cnccc1-c1ccc(F)cc1)c1ccnc(Nc2ccc(Cl)cc2)n1`, the pIC50 was 9.06. `O=C(Nc1cnccc1-c1ccc(F)cc1)c1ccnc(Nc2ccc(OC(F)F)cc2)n1` gave a pIC50 of 9.59.

Tested on: not listed separately
Test: Permeability of the compound from basolateral to apical side in human Caco-2 cells at 3 uM incubated for 2 hrs by LC-MS/MS analysis
Assay type: ADME, cell-based
Conditions: read-out: permeability
`O=C(Nc1cnccc1-c1ccccc1)c1ccnc(Nc2ccc(Cl)cc2)n1` gave a Papp B→A at 2 h, 3 µM of 3 ×10⁻⁶ cm/s. Work on `O=C(Nc1cnccc1-c1ccc(F)cc1)c1ccnc(Nc2ccc(Cl)cc2)n1` yielded a Papp B→A at 2 h, 3 µM of 2.3 ×10⁻⁶ cm/s. Work on `O=C(Nc1cnccc1-c1ccc(F)cc1)c1ccnc(Nc2ccc(OC(F)F)cc2)n1` yielded a Papp B→A at 2 h, 3 µM of 3 ×10⁻⁶ cm/s.

Tested on: not listed separately
Test: Cmax in C57BL/6 mouse at 10 mg/kg, po by LC-MS/MS analysis
Assay type: ADME, organism-based
Parameters: dose 10 mg/kg, route po
Conditions: in vivo
Work on `O=C(Nc1cnccc1-c1ccc(F)cc1)c1ccnc(Nc2ccc(Cl)cc2)n1` yielded a Cmax of 1400 nM.

Tested on: not listed separately
Test: Volume of distribution at steady state in C57BL/6 mouse at 2 mg/kg, iv by LC-MS/MS analysis
Assay type: ADME, organism-based
Conditions: in vivo, read-out: Vdss
For `O=C(Nc1cnccc1-c1ccc(F)cc1)c1ccnc(Nc2ccc(Cl)cc2)n1`, the Vd was 3.3 L/kg.

Tested on: not listed separately
Test: Half life in C57BL/6 mouse at 2 mg/kg, iv by LC-MS/MS analysis
Assay type: ADME, organism-based
Conditions: in vivo
In the case of `O=C(Nc1cnccc1-c1ccc(F)cc1)c1ccnc(Nc2ccc(Cl)cc2)n1`, the half-life was 174 min.

Tested on: not listed separately
Test: AUC (total) in C57BL/6 mouse at 10 mg/kg, po by LC-MS/MS analysis
Assay type: ADME, organism-based
Parameters: dose 10 mg/kg, route po
Conditions: in vivo
With `O=C(Nc1cnccc1-c1ccc(F)cc1)c1ccnc(Nc2ccc(Cl)cc2)n1` the AUC was 5.8 µM·h.

Tested on: not listed separately
Test: Permeability of the compound at 100 uM incubated for 4 hrs at pH 7.4 by PAMPA assay
Assay type: ADME
Conditions: read-out: permeability
Work on `O=C(Nc1cnccc1-c1ccccc1)c1ccnc(Nc2ccc(Cl)cc2)n1` yielded a Papp at 4 h, 100 µM of 85 ×10⁻⁶ cm/s. `O=C(Nc1cnccc1-c1ccc(F)cc1)c1ccnc(Nc2ccc(Cl)cc2)n1` showed a Papp at 4 h, 100 µM of 63.9 ×10⁻⁶ cm/s. Work on `O=C(Nc1cnccc1-c1ccc(F)cc1)c1ccnc(Nc2ccc(OC(F)F)cc2)n1` yielded a Papp at 4 h, 100 µM of 113 ×10⁻⁶ cm/s.

Tested on: not listed separately
Test: Metabolic stability in mouse liver microsomes assessed as parent compound remaining at 0.5 uM measured after 10 mins in presence of NADPH by LC-MS/MS analysis
Assay type: ADME, Microsome
Conditions: read-out: Stability
`Cc1ccc(Nc2nccc(C(=O)Nc3cnccc3-c3ccccc3)n2)cc1` gave a remaining at 10 min, 0.5 µM of 49%. In the case of `COc1ccc(Nc2nccc(C(=O)Nc3cnccc3-c3ccccc3)n2)cc1`, the remaining at 10 min, 0.5 µM was 45%. Work on `O=C(Nc1cnccc1OCC(F)(F)F)c1ccnc(Nc2ccccc2)n1` yielded a remaining at 10 min, 0.5 µM of 14%. `O=C(Nc1cnccc1-c1ccccc1)c1ccnc(Nc2cccnc2)n1` showed a remaining at 10 min, 0.5 µM of 12%. `O=C(Nc1cnccc1-c1ccccc1)c1ccnc(Nc2ccc(Cl)cc2)n1` gave a remaining at 10 min, 0.5 µM of 86%. Work on `O=C(Nc1cnccc1-c1ccc(F)cc1)c1ccnc(Nc2ccccc2)n1` yielded a remaining at 10 min, 0.5 µM of 42%. `O=C(Nc1cnccc1-c1ccc(F)cc1)c1ccnc(Nc2ccc(Cl)cc2)n1` showed a remaining at 10 min, 0.5 µM of 79%. Compound `O=C(Nc1cnccc1-c1ccc(F)cc1)c1ccnc(Nc2ccc(OC(F)F)cc2)n1` has a remaining at 10 min, 0.5 µM of 72%.

Target: Glycogen synthase kinase-3 (Homo sapiens, UniProt P49840+P49841)
Test: Inhibition of GSK-3 in human U2OS cells transfected with beta-catenin GFP and 4R1N tau plasmid assessed as inhibition of Tau phosphorylation at Ser396 residues by high-content imaging assay
Assay type: cell-based
Conditions: not given
For `Cc1ccc(Nc2nccc(C(=O)Nc3cnccc3-c3ccccc3)n2)cc1`, the IC50 was 71 nM. With `COc1ccc(Nc2nccc(C(=O)Nc3cnccc3-c3ccccc3)n2)cc1` the IC50 was 50 nM. With `O=C(Nc1cnccc1OCC(F)(F)F)c1ccnc(Nc2ccccc2)n1` the IC50 was 13 nM. `O=C(Nc1cnccc1-c1ccccc1)c1ccnc(Nc2cccnc2)n1` showed an IC50 of 46 nM. In the case of `O=C(Nc1cnccc1-c1ccccc1)c1ccnc(Nc2ccc(Cl)cc2)n1`, the IC50 was 70 nM. For `O=C(Nc1cnccc1-c1ccc(F)cc1)c1ccnc(Nc2ccccc2)n1`, the IC50 was 35 nM. With `O=C(Nc1cnccc1-c1ccc(F)cc1)c1ccnc(Nc2ccc(Cl)cc2)n1` the IC50 was 77 nM. In the case of `O=C(Nc1cnccc1-c1ccc(F)cc1)c1ccnc(Nc2ccc(OC(F)F)cc2)n1`, the IC50 was 74 nM.

Tested on: not listed separately
Test: Permeability of the compound at 100 uM incubated for 4 hrs at pH 5.5 by PAMPA assay
Assay type: ADME
Conditions: read-out: permeability
Work on `O=C(Nc1cnccc1-c1ccccc1)c1ccnc(Nc2ccc(Cl)cc2)n1` yielded a Papp at 4 h, 100 µM of 90 ×10⁻⁶ cm/s. For `O=C(Nc1cnccc1-c1ccc(F)cc1)c1ccnc(Nc2ccc(OC(F)F)cc2)n1`, the Papp at 4 h, 100 µM was 98 ×10⁻⁶ cm/s.

Target: Glycogen synthase kinase-3 beta (Homo sapiens, UniProt P49841, H355L)
Sequence (P49841 whole entry, looked up, stated change not applied, the tested form may be a part): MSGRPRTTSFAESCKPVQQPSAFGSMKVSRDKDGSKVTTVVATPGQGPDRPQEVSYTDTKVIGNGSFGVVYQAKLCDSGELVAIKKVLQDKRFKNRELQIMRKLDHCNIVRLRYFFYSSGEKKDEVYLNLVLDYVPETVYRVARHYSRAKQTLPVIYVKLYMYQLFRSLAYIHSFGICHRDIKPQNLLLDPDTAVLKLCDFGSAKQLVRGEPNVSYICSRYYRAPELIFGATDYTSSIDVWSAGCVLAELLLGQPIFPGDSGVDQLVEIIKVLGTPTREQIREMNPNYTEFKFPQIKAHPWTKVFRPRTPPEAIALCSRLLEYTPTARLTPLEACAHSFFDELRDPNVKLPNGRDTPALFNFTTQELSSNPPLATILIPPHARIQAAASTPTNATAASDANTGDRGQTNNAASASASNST
Test: Displacement of FL-KRREILSRRP[ps]ERYR-NH2 from human recombinant N-terminal His6-tagged GSK-3-beta (14 to 306 residues) H355L mutant expressed in baculovirus-infected Sf21 cells incubated for 20 hrs by fluorescence based analysis
Conditions: not given
With `Cc1ccc(Nc2nccc(C(=O)Nc3cnccc3-c3ccccc3)n2)cc1` the pIC50 was 9.51. `COc1ccc(Nc2nccc(C(=O)Nc3cnccc3-c3ccccc3)n2)cc1` showed a pIC50 of 9.35. `O=C(Nc1cnccc1OCC(F)(F)F)c1ccnc(Nc2ccccc2)n1` showed a pIC50 of 9.70. Compound `O=C(Nc1cnccc1-c1ccccc1)c1ccnc(Nc2cccnc2)n1` has a pIC50 of 8.92. Compound `O=C(Nc1cnccc1-c1ccccc1)c1ccnc(Nc2ccc(Cl)cc2)n1` has a pIC50 of 9.31. For `O=C(Nc1cnccc1-c1ccc(F)cc1)c1ccnc(Nc2ccccc2)n1`, the pIC50 was 9.60. With `O=C(Nc1cnccc1-c1ccc(F)cc1)c1ccnc(Nc2ccc(Cl)cc2)n1` the pIC50 was 8.96. Compound `O=C(Nc1cnccc1-c1ccc(F)cc1)c1ccnc(Nc2ccc(OC(F)F)cc2)n1` has a pIC50 of 9.35.

Tested on: not listed separately
Test: Metabolic stability in human liver microsomes assessed as parent compound remaining at 0.5 uM measured after 10 mins in presence of NADPH by LC-MS/MS analysis
Assay type: ADME, Microsome
Conditions: read-out: Stability
Compound `Cc1ccc(Nc2nccc(C(=O)Nc3cnccc3-c3ccccc3)n2)cc1` has a remaining at 10 min, 0.5 µM of 43%. With `COc1ccc(Nc2nccc(C(=O)Nc3cnccc3-c3ccccc3)n2)cc1` the remaining at 10 min, 0.5 µM was 21%. Compound `O=C(Nc1cnccc1OCC(F)(F)F)c1ccnc(Nc2ccccc2)n1` has a remaining at 10 min, 0.5 µM of 59%. `O=C(Nc1cnccc1-c1ccccc1)c1ccnc(Nc2cccnc2)n1` gave a remaining at 10 min, 0.5 µM of 52%. Compound `O=C(Nc1cnccc1-c1ccccc1)c1ccnc(Nc2ccc(Cl)cc2)n1` has a remaining at 10 min, 0.5 µM of 78%. `O=C(Nc1cnccc1-c1ccc(F)cc1)c1ccnc(Nc2ccccc2)n1` gave a remaining at 10 min, 0.5 µM of 61%. With `O=C(Nc1cnccc1-c1ccc(F)cc1)c1ccnc(Nc2ccc(Cl)cc2)n1` the remaining at 10 min, 0.5 µM was 80%. `O=C(Nc1cnccc1-c1ccc(F)cc1)c1ccnc(Nc2ccc(OC(F)F)cc2)n1` gave a remaining at 10 min, 0.5 µM of 82%.

Tested on: not listed separately
Test: Protein binding in rat plasma assessed as unbound fraction at 10 uM incubated for 5 hrs by equilibrium dialysis method
Assay type: ADME, cell-free
Conditions: not given
Work on `O=C(Nc1cnccc1-c1ccc(F)cc1)c1ccnc(Nc2ccc(Cl)cc2)n1` yielded a fraction unbound at 5 h, 10 µM of 0.003. Compound `O=C(Nc1cnccc1-c1ccc(F)cc1)c1ccnc(Nc2ccc(OC(F)F)cc2)n1` has a fraction unbound at 5 h, 10 µM of 0.004.

Tested on: not listed separately
Test: Protein binding in mouse plasma assessed as unbound fraction at 10 uM incubated for 5 hrs by equilibrium dialysis method
Assay type: ADME, cell-free
Conditions: not given
With `O=C(Nc1cnccc1-c1ccc(F)cc1)c1ccnc(Nc2ccc(Cl)cc2)n1` the fraction unbound at 5 h, 10 µM was 0.004.
